Where two headings read alike, the source gives them in different places.
Key:
Format in all cases: in vivo
[1] = test system: Chenopodium album (CHEAL), common lambsquarters; experiment: Postemergence herbicide evaluation, growth of Chenopodium album (CHEAL); conditions: Chenopodium album, post-emergence
[2] = test system: Abutilon theophrasti (ABUTH), velvetleaf; experiment: Postemergence herbicide evaluation, growth of Abutilon theophrasti (ABUTH); conditions: Abutilon theophrasti, post-emergence
[3] = test system: weeds ABUTH, AMATA, AMBEL, CHEAL, ERICA; experiment: Postemergence herbicide evaluation, overall average % weed control (ABUTH, AMATA, AMBEL, CHEAL, ERICA); conditions: post-emergence, read-out: Overall Ave % Weed Control; for pest or weed control at 560 g/ha: 560 g ae/ha; for pest or weed control at 280 g/ha: 280 g ae/ha
[4] = test system: Ambrosia artemisiifolia (AMBEL), common ragweed; experiment: Postemergence herbicide evaluation, growth of Ambrosia artemisiifolia (AMBEL); conditions: Ambrosia artemisiifolia, post-emergence
[5] = test system: Amaranthus rudis (AMATA), tall water hemp; experiment: Postemergence herbicide evaluation, growth of Amaranthus rudis (AMATA); conditions: Amaranthus tuberculatus, post-emergence
[6] = test system: glyphosate resistant Conyza canadensis (L.) (ERICA), horseweed; experiment: Postemergence herbicide evaluation, growth of Conyza canadensis (ERICA); conditions: Erigeron canadensis, post-emergence, read-out: Ave. ERICA, percent reduction in plant size relative to the untreated control; for pest or weed control at 560 g/ha: 560 g ae/ha; for pest or weed control at 280 g/ha: 280 g ae/ha
[7] = test system: weeds ABUTH, AMATA, AMBEL, CHEAL, ERICA; experiment: Postemergence herbicide evaluation, overall average % weed control across ABUTH, AMATA, AMBEL, CHEAL and ERICA; conditions: post-emergence, read-out: Overall Ave % Weed Control
[8] = 168 h, 560 g ae/ha, 7 DAA, read-out: Ave. CHEAL, percent reduction in plant size relative to the untreated control
[9] = 336 h, 560 g ae/ha, 14 DAA, read-out: Ave. CHEAL, percent reduction in plant size relative to the untreated control
[10] = 504 h, 560 g ae/ha, 21 DAA, read-out: Ave. CHEAL, percent reduction in plant size relative to the untreated control
[11] = 168 h, 560 g ae/ha, 7 DAA, read-out: AVE. ABUTH, percent reduction in plant size relative to the untreated control
[12] = 336 h, 560 g ae/ha, 14 DAA, read-out: AVE. ABUTH, percent reduction in plant size relative to the untreated control
[13] = 504 h, 560 g ae/ha, 21 DAA, read-out: AVE. ABUTH, percent reduction in plant size relative to the untreated control
[14] = 168 h, 560 g ae/ha, 7 DAA, read-out: AVE. AMBEL, percent reduction in plant size relative to the untreated control
[15] = 336 h, 560 g ae/ha, 14 DAA, read-out: AVE. AMBEL, percent reduction in plant size relative to the untreated control
[16] = 504 h, 560 g ae/ha, 21 DAA, read-out: AVE. AMBEL, percent reduction in plant size relative to the untreated control
[17] = 168 h, 560 g ae/ha, 7 DAA, read-out: Ave. AMATA, percent reduction in plant size relative to the untreated control
[18] = 336 h, 560 g ae/ha, 14 DAA, read-out: Ave. AMATA, percent reduction in plant size relative to the untreated control
[19] = 504 h, 560 g ae/ha, 21 DAA, read-out: Ave. AMATA, percent reduction in plant size relative to the untreated control
[20] = 168 h, 280 g ae/ha, 7 DAA, read-out: Ave. CHEAL, percent reduction in plant size relative to the untreated control
[21] = 336 h, 280 g ae/ha, 14 DAA, read-out: Ave. CHEAL, percent reduction in plant size relative to the untreated control
[22] = 504 h, 280 g ae/ha, 21 DAA, read-out: Ave. CHEAL, percent reduction in plant size relative to the untreated control
[23] = 168 h, 280 g ae/ha, 7 DAA, read-out: AVE. ABUTH, percent reduction in plant size relative to the untreated control
[24] = 336 h, 280 g ae/ha, 14 DAA, read-out: AVE. ABUTH, percent reduction in plant size relative to the untreated control
[25] = 504 h, 280 g ae/ha, 21 DAA, read-out: AVE. ABUTH, percent reduction in plant size relative to the untreated control
[26] = 168 h, 280 g ae/ha, 7 DAA, read-out: AVE. AMBEL, percent reduction in plant size relative to the untreated control
[27] = 336 h, 280 g ae/ha, 14 DAA, read-out: AVE. AMBEL, percent reduction in plant size relative to the untreated control
[28] = 504 h, 280 g ae/ha, 21 DAA, read-out: AVE. AMBEL, percent reduction in plant size relative to the untreated control
[29] = 168 h, 280 g ae/ha, 7 DAA, read-out: Ave. AMATA, percent reduction in plant size relative to the untreated control
[30] = 336 h, 280 g ae/ha, 14 DAA, read-out: Ave. AMATA, percent reduction in plant size relative to the untreated control
[31] = 504 h, 280 g ae/ha, 21 DAA, read-out: Ave. AMATA, percent reduction in plant size relative to the untreated control

## COc1ccc(/C=N/OC(=O)COc2ccc(Cl)cc2Cl)cc1 [Compound A31]
[1]; [8]
  pest or weed control at 560 g/ha: 82.5%
[1]; [9]
  pest or weed control at 560 g/ha: 97%
[1]; [10]
  pest or weed control at 560 g/ha: 96%
[2]; [11]
  pest or weed control at 560 g/ha: 40%
[2]; [12]
  pest or weed control at 560 g/ha: 57.5%
[2]; [13]
  pest or weed control at 560 g/ha: 70%
[3]; 168 h, 7 DAA
  pest or weed control at 560 g/ha: 68.5%
[3]; 336 h, 14 DAA
  pest or weed control at 560 g/ha: 83%
[3]; 504 h, 21 DAA
  pest or weed control at 560 g/ha: 86.4%
[4]; [14]
  pest or weed control at 560 g/ha: 62.5%
[4]; [15]
  pest or weed control at 560 g/ha: 75%
[4]; [16]
  pest or weed control at 560 g/ha: 100%
[5]; [17]
  pest or weed control at 560 g/ha: 75%
[5]; [18]
  pest or weed control at 560 g/ha: 96%
[5]; [19]
  pest or weed control at 560 g/ha: 67.5%
[6]; 168 h, 7 DAA
  pest or weed control at 560 g/ha: 82.5%
[6]; 336 h, 14 DAA
  pest or weed control at 560 g/ha: 89.5%
[6]; 504 h, 21 DAA
  pest or weed control at 560 g/ha: 98.5%

## O=C(COc1ccc(Cl)cc1Cl)OCCOCCOCCOCCOC(=O)COc1ccc(Cl)cc1Cl [Compound B14]
[1]; 168 h, read-out: Ave. CHEAL
  pest or weed control at 280 g/ha: 75%
  pest or weed control at 560 g/ha: 77.5%
[1]; 336 h, read-out: Ave. CHEAL
  pest or weed control at 280 g/ha: 94%
  pest or weed control at 560 g/ha: 98%
[1]; 504 h, read-out: Ave. CHEAL
  pest or weed control at 280 g/ha: 90%
  pest or weed control at 560 g/ha: 99%
[7]; 168 h
  pest or weed control at 280 g/ha: 75%
  pest or weed control at 560 g/ha: 82.5%
[7]; 336 h
  pest or weed control at 280 g/ha: 87.3%
  pest or weed control at 560 g/ha: 94.2%
[7]; 504 h
  pest or weed control at 280 g/ha: 90.2%
  pest or weed control at 560 g/ha: 97.6%
[2]; 168 h, read-out: AVE. ABUTH
  pest or weed control at 280 g/ha: 60%
  pest or weed control at 560 g/ha: 70%
[2]; 336 h, read-out: AVE. ABUTH
  pest or weed control at 280 g/ha: 77.5%
  pest or weed control at 560 g/ha: 87.5%
[2]; 504 h, read-out: AVE. ABUTH
  pest or weed control at 280 g/ha: 92%
  pest or weed control at 560 g/ha: 97.5%
[4]; 168 h, read-out: AVE. AMBEL
  pest or weed control at 280 g/ha: 82.5%
  pest or weed control at 560 g/ha: 87.5%
[4]; 336 h, read-out: AVE. AMBEL
  pest or weed control at 280 g/ha: 75%
  pest or weed control at 560 g/ha: 89.5%
[4]; 504 h, read-out: AVE. AMBEL
  pest or weed control at 280 g/ha: 100%
  pest or weed control at 560 g/ha: 100%
[5]; 168 h, read-out: Ave. AMATA
  pest or weed control at 280 g/ha: 72.5%
  pest or weed control at 560 g/ha: 90%
[5]; 336 h, read-out: Ave. AMATA
  pest or weed control at 280 g/ha: 90%
  pest or weed control at 560 g/ha: 96%
[5]; 504 h, read-out: Ave. AMATA
  pest or weed control at 280 g/ha: 70%
  pest or weed control at 560 g/ha: 92.5%

## O=C(COc1ccc(Cl)cc1Cl)Nc1c(Cl)c(F)nc(F)c1Cl [Compound D25]
[1]; [20]
  pest or weed control at 280 g/ha: 35%
[1]; [8]
  pest or weed control at 560 g/ha: 45%
[1]; [21]
  pest or weed control at 280 g/ha: 0%
[1]; [9]
  pest or weed control at 560 g/ha: 7.5%
[1]; [22]
  pest or weed control at 280 g/ha: 12.5%
[1]; [10]
  pest or weed control at 560 g/ha: 15%
[2]; [23]
  pest or weed control at 280 g/ha: 0%
[2]; [11]
  pest or weed control at 560 g/ha: 3.5%
[2]; [24]
  pest or weed control at 280 g/ha: 0%
[2]; [12]
  pest or weed control at 560 g/ha: 0%
[2]; [25]
  pest or weed control at 280 g/ha: 0%
[2]; [13]
  pest or weed control at 560 g/ha: 2.5%
[3]; 168 h, 7 DAA
  pest or weed control at 280 g/ha: 16.5%
  pest or weed control at 560 g/ha: 21.2%
[3]; 336 h, 14 DAA
  pest or weed control at 280 g/ha: 10%
  pest or weed control at 560 g/ha: 10.5%
[3]; 504 h, 21 DAA
  pest or weed control at 280 g/ha: 7.5%
  pest or weed control at 560 g/ha: 8%
[4]; [26]
  pest or weed control at 280 g/ha: 35%
[4]; [14]
  pest or weed control at 560 g/ha: 40%
[4]; [27]
  pest or weed control at 280 g/ha: 15%
[4]; [15]
  pest or weed control at 560 g/ha: 7.5%
[4]; [28]
  pest or weed control at 280 g/ha: 10%
[4]; [16]
  pest or weed control at 560 g/ha: 7.5%
[5]; [29]
  pest or weed control at 280 g/ha: 5%
[5]; [17]
  pest or weed control at 560 g/ha: 7.5%
[5]; [30]
  pest or weed control at 280 g/ha: 15%
[5]; [18]
  pest or weed control at 560 g/ha: 25%
[5]; [31]
  pest or weed control at 280 g/ha: 5%
[5]; [19]
  pest or weed control at 560 g/ha: 2.5%
[6]; 168 h, 7 DAA
  pest or weed control at 280 g/ha: 7.5%
  pest or weed control at 560 g/ha: 10%
[6]; 336 h, 14 DAA
  pest or weed control at 280 g/ha: 20%
  pest or weed control at 560 g/ha: 12.5%
[6]; 504 h, 21 DAA
  pest or weed control at 280 g/ha: 10%
  pest or weed control at 560 g/ha: 12.5%

## O=C(COc1ccc(Cl)cc1Cl)Oc1cccnn1 [Compound E2]
[1]; [20]
  pest or weed control at 280 g/ha: 65%
[1]; [8]
  pest or weed control at 560 g/ha: 75%
[1]; [21]
  pest or weed control at 280 g/ha: 63%
[1]; [9]
  pest or weed control at 560 g/ha: 88%
[1]; [22]
  pest or weed control at 280 g/ha: 63%
[1]; [10]
  pest or weed control at 560 g/ha: 94%
[2]; [23]
  pest or weed control at 280 g/ha: 85%
[2]; [11]
  pest or weed control at 560 g/ha: 85%
[2]; [24]
  pest or weed control at 280 g/ha: 93%
[2]; [12]
  pest or weed control at 560 g/ha: 93%
[2]; [25]
  pest or weed control at 280 g/ha: 98%
[2]; [13]
  pest or weed control at 560 g/ha: 98%
[3]; 168 h, 7 DAA
  pest or weed control at 280 g/ha: 72%
  pest or weed control at 560 g/ha: 74%
[3]; 336 h, 14 DAA
  pest or weed control at 280 g/ha: 83%
  pest or weed control at 560 g/ha: 89%
[3]; 504 h, 21 DAA
  pest or weed control at 280 g/ha: 86%
  pest or weed control at 560 g/ha: 93%
[4]; [26]
  pest or weed control at 280 g/ha: 63%
[4]; [14]
  pest or weed control at 560 g/ha: 63%
[4]; [27]
  pest or weed control at 280 g/ha: 90%
[4]; [15]
  pest or weed control at 560 g/ha: 95%
[4]; [28]
  pest or weed control at 280 g/ha: 94%
[4]; [16]
  pest or weed control at 560 g/ha: 99%
[5]; [29]
  pest or weed control at 280 g/ha: 78%
[5]; [17]
  pest or weed control at 560 g/ha: 73%
[5]; [30]
  pest or weed control at 280 g/ha: 80%
[5]; [18]
  pest or weed control at 560 g/ha: 83%
[5]; [31]
  pest or weed control at 280 g/ha: 83%
[5]; [19]
  pest or weed control at 560 g/ha: 84%
[6]; 168 h, 7 DAA
  pest or weed control at 280 g/ha: 70%
  pest or weed control at 560 g/ha: 73%
[6]; 336 h, 14 DAA
  pest or weed control at 280 g/ha: 88%
  pest or weed control at 560 g/ha: 85%
[6]; 504 h, 21 DAA
  pest or weed control at 280 g/ha: 94%
  pest or weed control at 560 g/ha: 90%
